Assay results published in ChEMBL document CHEMBL3351444, “Poliothrysoside and its derivatives as novel insulin sensitizers potentially driving AMPK activation and inhibiting adipogenesis” (Eur J Med Chem, 2014).
The source made the active and inactive calls. No cut-off for these calls is given here.

Columns and labels:
3T3-L1 [1] = assay: Induction of [3H] 2-deoxyglucose uptake in chronic insulin resistant mouse 3T3L1 cells assessed as maximum uptake at 10 uM by liquid scintillation counting; assay type: functional
3T3-L1 [2] = assay: Induction of AMPK phosphorylation in mouse 3T3L1 cells at 1 mM by Western blot analysis; assay type: cell-based
3T3-L1 [3] = assay: Induction of [3H] 2-deoxyglucose uptake in chronic insulin resistant mouse 3T3L1 cells assessed as maximum uptake by liquid scintillation counting; assay type: functional, cell-based
3T3-L1 [4] = assay: Induction of AMPK phosphorylation in mouse 3T3L1 cells at 10 uM by Western blot analysis; assay type: cell-based
3T3-L1 [5] = assay: Induction of AKT phosphorylation in mouse 3T3L1 cells at 10 uM by Western blot analysis; assay type: cell-based
3T3-L1 [6] = assay: Induction of [3H] 2-deoxyglucose uptake in chronic insulin resistant mouse 3T3L1 cells at 10 uM after 24 hrs by liquid scintillation counting in presence of AMPK inhibitor compound C; assay type: functional, cell-based
3T3-L1 [7] = assay: Inhibition of adipogenesis in mouse 3T3L1 cells assessed as reduction in lipid droplet formation at 20 uM by using Oil-Red O by microscopy; assay type: functional
3T3-L1 [8] = assay: Inhibition of adipogenesis in mouse 3T3L1 cells assessed as reduction in lipid droplet formation at 50 uM by using Oil-Red O by microscopy; assay type: functional
3T3-L1 [9] = assay: Inhibition of adipogenesis in mouse 3T3L1 cells assessed as reduction in lipid droplet formation at 10 uM by using Oil-Red O by microscopy; assay type: functional, cell-based
[10] = Toxicity in mouse 3T3L1 cells; assay type: cell-based; conditions: 3t3-l1
3T3-L1 [11] = assay: Inhibition of adipogenesis in mouse 3T3L1 cells assessed as reduction in lipid droplet formation by using Oil-Red O by microscopy; assay type: functional, cell-based

With `O=C(OC[C@H]1O[C@@H](Oc2ccc(OCc3ccccc3)cc2CO)[C@H](O)[C@@H](O)[C@@H]1O)c1ccccc1` as the compound, how does the Activity (3T3-L1 [1]) read?
The Activity was “Active”.

For `CN(C)C(=N)NC(=N)N`, which Activity (3T3-L1 [2]) is on record?
Its Activity is “Active”.

For `CCOc1ccc(O[C@@H]2O[C@H](COC(=O)c3ccccc3)[C@@H](O)[C@H](O)[C@H]2O)c(CO)c1`, which Activity (3T3-L1 [1]) is on record?
The Activity was “Active”.

With `O=C(COc1ccc(O[C@@H]2O[C@H](COC(=O)c3ccccc3)[C@@H](O)[C@H](O)[C@H]2O)c(CO)c1)c1ccccc1` as the compound, how does the Activity (3T3-L1 [1]) read?
The Activity was “Active”.

With `O=C(OC[C@H]1O[C@@H](Oc2ccc(O)cc2CO)[C@H](O)[C@@H](O)[C@@H]1O)c1ccccc1` as the compound, how does the Activity (3T3-L1 [1]) read?
The Activity was “Active”.

Which Activity (3T3-L1 [1]) does the source give for `O=C(COc1ccc(O[C@@H]2O[C@H](COC(=O)c3ccccc3)[C@@H](O)[C@H](O)[C@H]2O)c(CO)c1)c1ccc(Cl)cc1` here?
Its Activity is “Active”.

With `CC(=O)OCc1cc(OC(C)=O)ccc1O[C@@H]1O[C@H](COC(=O)c2ccccc2)[C@@H](OC(C)=O)[C@H](OC(C)=O)[C@H]1OC(C)=O` as the compound, how does the Activity (3T3-L1 [1]) read?
The Activity was 17.35 pmol/mg/min.

And the Activity (3T3-L1 [3])?
The Activity was “Dose-dependent effect”.

And the Activity (3T3-L1 [4])?
Its Activity is “Active”.

What about the Activity (3T3-L1 [5]) of the same compound?
The Activity was “inactive”.

And the Activity (3T3-L1 [6])?
Its Activity is “inactive”.

What about the inhibition at 20 µM (3T3-L1 [7]) of the same compound?
The inhibition at 20 µM was 20%.

What about the inhibition at 50 µM (3T3-L1 [8]) of the same compound?
The inhibition at 50 µM was 64%.

And the inhibition (3T3-L1 [9])?
Its inhibition is “inactive”.

What about the Activity [10] of the same compound?
Its Activity is “Non-toxic”.

And the inhibition (3T3-L1 [11])?
The inhibition was “Dose-dependent effect”.

With `O=C(OC[C@H]1O[C@@H](Oc2ccc(OCc3ccc([N+](=O)[O-])cc3)cc2CO)[C@H](O)[C@@H](O)[C@@H]1O)c1ccccc1` as the compound, how does the Activity (3T3-L1 [1]) read?
Its Activity is “Active”.
